Measurements as given in US12622965B2, “Therapeutical tools and methods using temperature-sensitive receptors for treating blindness” (FRIEDRICH MIESCHER INSTITUTE FOR BIOMEDICAL RESEARCH, priority 2020, dated 2026).

Key:
[1] = test system: adult human ex vivo retinal explants; experiment: AAV transduction of adult human ex vivo retinal explants, quantified by immunofluorescence; format: cell-based; details: CAG promoter, mean±s.d
Procedure: Finally, the inventors provided NIR sensitivity to in a blind human retina. They targeted rTRPV1 to adult human ex vivo retinal explants, kept alive in culture for eight weeks post mortem. Cultured retinas lose light sensitivity after 16 hours. Using a CAG promoter, a density of 2477±889 rTRPV1 positive photoreceptors was achieved per mm^2 of explant tissue (mean±s.d). 94.5±4.2% of rTRPV1 positive cells were photoreceptors (n=2583 rTRPV1 positive cells mm^−2, n=2477 rTRPV1 positive photoreceptors mm^−2, mean±s.d).
Human retinal tissue was obtained after corneal tissue harvest from adult multi-organ donors with no reported history of eye disease, n=2 eyes from n=2 donors. […] Light responses were recorded from samples 8 weeks post-mortem. […]
(§1) A Zeiss LSM 700 laser scanning confocal microscope was used to acquire images of antibody stained cells and tissues with an EC Plan-Neofluar 40×/1.30 oil M27 objective at up to 4 excitation laser lines according to secondary antibody specification. Expression was assessed from 1024×1024 pixel images in a z-stack with 0.75 μm steps. […] AAV transduction was quantified from retinal wholemounts. […] Quantification was performed separately for outer nuclear layer, inner nuclear layer and ganglion cell layer.

[2] = test system: cone photoreceptors of the rd1 mouse; experiment: AAV transduction of rd1 mouse cones after subretinal injection, quantified by immunofluorescence and confocal imaging; format: in vivo
Description: The inventors targeted rTRPV1 to cone photoreceptors of the Pde6brd1 (known as rd1) mouse via subretinal injection of adeno-associated virus (AAV) and a photoreceptor-specific promoter (mCar) to restrict expression. Rd1 mice have severe photoreceptor degeneration with complete loss of rod and dysfunctional light-insensitive cone photoreceptors by four weeks of age postnatal (P28). 55±10% of rd1 cones expressed rTRPV1 in the cell membrane (n=12,813 cones mm−2, n=7042 TRPV1 positive cones mm−2, mean±s.d). 98±1.6% of rat TRPV1 positive cells were cones (n=7216 TRPV1 positive cells mm−2, n=7042 TRPV1 positive cones mm−2, mean±s.d).
Ocular injections to deliver AAVs expressing TRP variants and/or functionalized nanorods were performed on 4 week old mice anesthetized with 2.5% isoflurane. A small incision was made with a sharp 30 gauge needle at the nasal corneo-scleral junction and AAV and/or nanorods were co-injected through this incision into the subretinal space using a blunt 5 μL Hamilton syringe held in a micromanipulator. For cone photoreceptor activity monitoring, cone specific AAV-ProA7-GCaMP6s (11) was co-injected subretinally with rTRPV1 and/or nanorods. A maximum volume of 2.5 μL was administered per eye. For primary visual cortex activity monitoring, AAV-pCAG-FLEX2-tTA2 was delivered by intravenous retro-orbital injection as previously described by D. Hillier et al. Nat Neurosci 20, 960-968 (2017) 2 weeks after initial ocular injection of rTRPV1 and nanorods. […]
as §1

[3] = AAV, mCar promoter, subretinal injection, mean±s.d

Substance: TRPV1.465-6x-His: rat TRPV1 channel with 6x-His epitope tag inserted in the first extracellular loop after amino acid 465; delivered by AAV
- density of rTRPV1 positive photoreceptors ([1]; explant tissue): 2477±889 per mm^2
- rTRPV1 positive cells that were photoreceptors [1]: 94.5±4.2%
- channel (TRPV1 or Ollas) positive cells that were cones [2, 3]: 98±1.6%
- rd1 cones expressing the channel in the cell membrane [2, 3]: 55±10%
- expression of the 6x-His tag in TRPV1 positive cones ([2]; rd1 mouse): All TRPV1 positive cones expressed the 6x-His tag
